Values quoted from earlier work, collected in patent US20220015356A1, “AQUEOUS SOLUTIONS OF POORLY SOLUBLE PESTICIDES USING POLYALKYOXYLATED ALCOHOLS” (priority 2018, published 2022).

Details: at 20° C.

COC(=O)N(OC)c1ccccc1COc1ccn(-c2ccc(Cl)cc2)n1 [pyraclostrobin]
water solubility: < 1.9 µg/mL
